Experimental data as given in ChEMBL document CHEMBL3822386, “New sesquiterpene lactones, vernonilides A and B, from the seeds of Vernonia anthelmintica in Uyghur and their antiproliferative activities” (Bioorg Med Chem Lett, 2016).

Key:
Format in all cases: functional, cell-based
A549 = test: Antiproliferative activity against human A549 cells assessed as reduction in cell viability after 72 hrs by WST-8 assay; details: A549, 72 h
MDA-MB-231 = test: Antiproliferation activity against human MDA-MB-231 cells assessed as reduction in cell viability after 72 hrs by WST-8 assay; details: MDA-MB-231, 72 h
HeLa = test: Antiproliferation activity against human HeLa cells assessed as reduction in cell viability after 72 hrs by WST-8 assay

Compound: C=C[C@]1(C)C[C@H](OC(=O)C(=C)CO)[C@H]2C(=C)C(=O)O[C@@H]2[C@H]1C(=C)C=O
- IC50 (A549): 700 nM
- IC50 (MDA-MB-231): 350 nM
- IC50 (HeLa): 400 nM

Compound: C=C(CO)C(=O)O[C@H]1CC(=C)[C@@H]2CC[C@@H](CO)[C@@H]2[C@H]2OC(=O)C(=C)[C@@H]21
- IC50 (A549): 1000 nM
- IC50 (MDA-MB-231): 250 nM
- IC50 (HeLa): 100 nM

Compound: C=C[C@]1(C)C[C@H](OC(=O)C(=C)COC(C)=O)[C@H]2C(=C)C(=O)O[C@@H]2[C@H]1C(=C)C=O
- IC50 (A549): 2950 nM
- IC50 (MDA-MB-231): 3200 nM
- IC50 (HeLa): 4160 nM

Compound: C=C[C@@]12COC(=O)C(=C)[C@@H]1[C@H]1OC(=O)C(=C)[C@@H]1[C@@H](OC(=O)C(=C)COC(C)=O)C2
- IC50 (A549): 1520 nM
- IC50 (MDA-MB-231): 1350 nM
- IC50 (HeLa): 2160 nM

Compound: C=C[C@@]12COC(=O)C(=C)[C@@H]1[C@H]1OC(=O)C(=C)[C@@H]1[C@@H](OC(=O)C(=C)COCC)C2
- IC50 (A549): 21600 nM
- IC50 (MDA-MB-231): 9500 nM
- IC50 (HeLa): 16300 nM

Compound: C=C[C@@]12COC(=O)C(=C)[C@@H]1[C@H]1OC(=O)C(=C)[C@@H]1[C@@H](OC(=O)C(=C)CO)C2 [VERNODALIN]
- IC50 (A549): 400 nM
- IC50 (MDA-MB-231): 300 nM
- IC50 (HeLa): 200 nM

Compound: C=C[C@@]12COC(=O)C(=C)[C@@H]1[C@H]1OC(=O)C(=C)[C@@H]1[C@@H](O)C2 [VERNOLEPIN]
- IC50 (A549): 16900 nM
- IC50 (MDA-MB-231): 1900 nM
- IC50 (HeLa): 2200 nM
